# Source: paper PMC12064818, “A general assay platform to study protein pharmacology using ligand-dependent structural dynamics” (Nature Communications, 2025)
# Biological target: T1, FLuc-C-HiBiT (Photinus pyralis, UniProt P08659)
# T1 construct: firefly luciferase with C-terminal HiBiT tag, E. coli expressed
# Assay: biochemical
# Conditions: enzyme activity, 10 uM ATP; read-out: IC50 or SDR50 (mM) / FLuc E
# T1 sequence (P08659 whole entry, looked up): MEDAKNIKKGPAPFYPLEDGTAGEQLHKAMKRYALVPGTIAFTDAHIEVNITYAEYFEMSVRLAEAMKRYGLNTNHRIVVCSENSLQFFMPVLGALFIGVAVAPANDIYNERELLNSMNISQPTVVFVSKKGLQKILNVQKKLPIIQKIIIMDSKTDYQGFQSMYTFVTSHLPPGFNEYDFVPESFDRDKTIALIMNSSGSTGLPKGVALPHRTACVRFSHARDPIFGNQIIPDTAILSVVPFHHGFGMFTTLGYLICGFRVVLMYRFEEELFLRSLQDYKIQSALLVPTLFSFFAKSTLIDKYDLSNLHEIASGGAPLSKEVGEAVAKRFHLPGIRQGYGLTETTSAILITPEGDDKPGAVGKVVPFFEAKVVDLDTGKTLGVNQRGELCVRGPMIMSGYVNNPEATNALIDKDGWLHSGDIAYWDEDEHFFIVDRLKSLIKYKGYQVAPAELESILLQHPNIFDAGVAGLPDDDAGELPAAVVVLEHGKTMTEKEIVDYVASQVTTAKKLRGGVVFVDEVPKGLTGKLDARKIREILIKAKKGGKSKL
row,SMILES,IC50 [mM]
1,COc1ccc(-c2cc3c(=O)n(CCNC(=O)c4c(F)cccc4Cl)ccn3n2)cc1 [NCGC00456907-01],0.007
2,Cc1ccc(C2=Nc3cc(Cl)ccc3NC(c3ccccc3)=N2)cc1 [NCGC00116648-01],> 0.03
3,CCn1cc(-c2ccc(F)cc2)cc1C(=O)O [NCGC00432651-01],> 0.03
4,CCC(=O)N1CCN(c2nc3c(s2)CC(C(=O)O)CC3)CC1 (centres unmarked) [NCGC00432761-01],0.0111
5,Fc1ccc(Nc2nc(-c3ccccc3)no2)cc1 [NCGC00422295-01],0.00624
6,Cc1ccc(NC(=O)Nc2ccc(C)n(CC(=O)NC(C)c3cccnc3)c2=O)cc1 (centres unmarked) [NCGC00430804-01],0.00157
7,O=C(Nc1cc(-c2nc3ccccc3s2)ccc1Cl)c1cc2ccccc2o1 [NCGC00098905-01],> 0.03
8,CC(C)(C)c1ccc(C(=O)Nc2ccc(C(O)[C@H]3COCC(=O)N3Cc3ccccc3)cc2)cc1 (some centres unmarked) [NCGC00394950-01],> 0.03
9,Cc1c(NC(=O)c2cccc(Cl)c2Cl)cccc1-c1nc2ccccc2s1 [NCGC00595034-01],> 0.03
10,Cc1ccc2nc(-c3ccc(NC(=O)COc4ccc(Br)cc4Br)cc3)sc2c1 [NCGC00098202-02],0.00351
11,CN1CCN(c2ccc(-c3cc4c(ccn4C)c(C(=O)NCC4CCC(=O)N4)n3)cc2)CC1 (centres unmarked) [NCGC00411731-01],0.0157
12,COCC(C)Nc1ncnc2c1cnn2-c1cccc(Cl)c1 (centres unmarked) [NCGC00139080-01],0.0111
13,COc1ccc(-n2nc(C)c([C@@H]3C=C[C@@H](NC(=O)Nc4cccc(C#N)c4)C3)c2C)cc1 [NCGC00400336-01],0.018
14,Oc1cc(-c2nc3ccccc3s2)cc2c1OCCN(Cc1cccn1-c1nccs1)C2 [NCGC00238878-01],> 0.03
15,Cc1ccccc1-c1ccc(COc2ccc3c(cnn3CCC(=O)O)c2)cc1 [NCGC00418125-01],0.0161
16,Cc1ccc(NC(=O)c2oc3ccc4c(c3c2C)C(=O)CC(C)(C)O4)c(C)c1 [NCGC00122260-01],0.00989
17,N#Cc1c(-n2ncnc2-c2cccc(Cl)c2)sc2c1CCCCC2 [NCGC00099368-01],0.00197
18,Cc1ccc(NCc2nc3ccccc3n2CCOc2ccccc2)cc1 [NCGC00104457-01],0.0111
19,Cc1ccc(-c2cc(C(=O)N3CCC(Cc4nncn4CC4CC4)CC3)c3ccccc3n2)cc1C [NCGC00456240-01],0.00197
20,CCOC(=O)c1ccc(NC2SC(=O)N(Cc3cccc(C(=O)O)c3)C2=O)cc1 (centres unmarked) [NCGC00099894-01],0.0124
21,O=C(Nc1ccccc1)Nc1ccc2n(c1=O)C[C@H]1C[C@@H]2CN(C(=O)c2ccccc2)C1 [NCGC00397999-01],0.018

row,SMILES,IC50 [mM]
1,CN(Cc1ccccc1)C(=O)[C@H]1C[C@@H](O)[C@H](O)[C@@H]2N=C(Nc3ccc(-n4cccn4)cc3)S[C@@H]21 [NCGC00401585-01],0.0111
2,CCCCN(C)[S+](=O)([O-])c1ccc(C(=O)Nc2ccc(-c3nc4ccc(C)cc4s3)cc2)cc1 [NCGC00134689-02],> 0.03
3,O=C1c2cnc(-c3cccc(C(F)(F)F)c3)nc2OCCN1CC1CC1 [NCGC00413514-01],0.00904
4,CC[S+](=O)([O-])c1ccccc1C(=O)Nc1ccc(-c2nc3ccccc3s2)cc1 [NCGC00134164-01],> 0.03
5,c1ccc(-n2ncc3c(N4CCCCC4)ncnc32)cc1 [NCGC00081373-03],0.000881
6,c1coc(-c2nc3nccc(-c4ccc5c(c4)OCCCO5)n3n2)c1 [NCGC00424571-01],0.00176
7,c1ccc(-c2cnc(Nc3ccc4c(c3)OCCO4)c3c2CCO3)cc1 [NCGC00412769-01],0.0161
8,COc1cccc(-c2ncc3c(n2)OCCN(Cc2ccc(F)cc2F)C3=O)c1 [NCGC00413648-01],0.0161
9,Cc1ccc(C(=O)Nc2cccc(-c3ccc(N4CCN(C)CC4)nn3)c2)cc1C [NCGC00427552-01],0.00394
10,C[C@@H]1C(=O)O[C@H]2[C@H]1CC[C@@]1(C)Cc3sc(Nc4cccnc4)nc3[C@@H](C)[C@H]21 [NCGC00421621-01],0.000453
11,CN(CCc1cn[nH]c1)c1ccc(-c2nc(-c3ccccc3F)no2)cn1 [NCGC00429241-01],0.00313
12,COc1ccc(-c2ccc3c(c2)C(=O)N2CC[C@H](NC(=O)c4cccc(F)c4)[C@H]2C(=O)N3)cc1 [NCGC00399389-01],0.00989
13,CCOc1cccc(-c2nc(C3CCOC3)no2)c1 (centres unmarked) [NCGC00445015-01],> 0.03
14,Fc1ccccc1Nc1nc(-c2ccccc2)no1 [NCGC00422293-01],0.0007
15,CC(C)(C)n1cc(-c2cc(C(=O)N3C[C@H]4CC[C@H]3C4)c3ccccc3n2)cn1 [NCGC00432050-01],0.007
16,COc1ccc(-c2cn3nc(SCC(=O)Nc4cc(C)cc(C)c4)ccc3n2)cc1 [NCGC00134460-01],0.00556
17,CN(C)C1CCN(c2ccc(-c3nc(CCCc4ccccc4)no3)cn2)CC1 [NCGC00437613-01],> 0.03
18,O=C(Nc1cccnc1)c1nc2c(o1)CCN(Cc1nccs1)CC2 [NCGC00413267-01],0.0202
19,Cc1ccc(-c2cc(N3CCC(CNC(=O)c4ccc5[nH]cnc5c4)CC3)[nH]n2)cc1 [NCGC00437766-01],0.00881
20,COc1cccc(C(=O)NCCn2ccn3nc(-c4ccc(C)c(C)c4)cc3c2=O)c1OC [NCGC00457018-01],0.00785
